Assay [1] has as its target T1, Human ASK1 (Homo sapiens, UniProt Q99683).
T1 construct: expressed in transfected cells; host or cells: HEK293T-AP1
T1 sequence (Q99683 1-1374): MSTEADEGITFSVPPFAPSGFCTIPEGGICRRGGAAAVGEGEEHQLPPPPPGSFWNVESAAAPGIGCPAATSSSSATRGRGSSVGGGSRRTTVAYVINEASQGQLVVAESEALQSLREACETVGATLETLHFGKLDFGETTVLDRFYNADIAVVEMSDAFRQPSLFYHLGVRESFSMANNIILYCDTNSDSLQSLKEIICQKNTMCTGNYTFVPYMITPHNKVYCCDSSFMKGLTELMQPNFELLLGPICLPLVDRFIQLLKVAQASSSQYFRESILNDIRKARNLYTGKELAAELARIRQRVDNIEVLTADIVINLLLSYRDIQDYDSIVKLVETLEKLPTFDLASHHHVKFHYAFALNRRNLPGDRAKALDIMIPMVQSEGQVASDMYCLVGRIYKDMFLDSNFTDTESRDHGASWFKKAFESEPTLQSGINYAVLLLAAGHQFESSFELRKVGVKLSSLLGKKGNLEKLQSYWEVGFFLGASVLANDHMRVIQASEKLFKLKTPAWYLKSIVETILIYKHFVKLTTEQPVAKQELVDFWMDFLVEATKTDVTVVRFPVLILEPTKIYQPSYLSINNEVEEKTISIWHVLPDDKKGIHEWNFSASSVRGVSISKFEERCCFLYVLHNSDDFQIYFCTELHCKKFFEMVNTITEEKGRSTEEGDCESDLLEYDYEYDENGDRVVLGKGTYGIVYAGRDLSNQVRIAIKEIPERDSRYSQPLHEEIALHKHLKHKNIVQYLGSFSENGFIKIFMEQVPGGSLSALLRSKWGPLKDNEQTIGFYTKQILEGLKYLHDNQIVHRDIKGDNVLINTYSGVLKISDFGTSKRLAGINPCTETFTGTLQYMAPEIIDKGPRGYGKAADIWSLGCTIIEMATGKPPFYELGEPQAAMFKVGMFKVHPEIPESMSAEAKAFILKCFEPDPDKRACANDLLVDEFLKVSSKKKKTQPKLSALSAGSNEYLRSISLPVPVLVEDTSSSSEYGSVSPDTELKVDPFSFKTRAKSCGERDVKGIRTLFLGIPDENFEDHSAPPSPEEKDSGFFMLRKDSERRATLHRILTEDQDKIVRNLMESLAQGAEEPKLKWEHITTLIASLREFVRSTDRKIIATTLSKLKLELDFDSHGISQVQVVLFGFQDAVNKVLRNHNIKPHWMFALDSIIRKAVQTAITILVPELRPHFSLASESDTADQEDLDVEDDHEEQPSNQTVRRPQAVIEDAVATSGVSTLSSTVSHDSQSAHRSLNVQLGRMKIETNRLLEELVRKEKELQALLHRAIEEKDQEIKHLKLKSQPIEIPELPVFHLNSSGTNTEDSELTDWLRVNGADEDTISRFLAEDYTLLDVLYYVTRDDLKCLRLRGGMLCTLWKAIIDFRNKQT
Briefly: ASK1 Cell Based Assay (phospho p38 read out in hASK1 transfected HEK293T-AP1 cells). To be noted: HEK293T-AP1 cells, 1 mM hydrogen peroxide, phospho p38; read-out: Cell Based Assay IC50. The method, boiled down:
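HEK293T-AP1 cells transfected with hASK1, after 24 h treated with compounds for 24 h (0.2% DMSO), then stimulated with 1 mM H2O2 for 1 h with compounds present.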

The target of assay [2] is T2, recombinant ASK1 (Homo sapiens, UniProt Q99683).
T2 construct: purchased Carna Biosciences
Briefly: ASK1 Biochemical Assay (HTRF KinEASE-STK S3). The conditions noted are these: ATP 100 μM; read-out: Biochemical Assay IC50. In short, it runs like this: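 Recombinant ASK1 (5 ng) preincubated with compound 1 h at 23 °C in MOPS pH 7 buffer with Mg-acetate, DTT, NP40, glycerol, BSA and 1% DMSO. Inhibition calculated against vehicle after substrate-blank subtraction.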
In general terms: Time-resolved FRET reads energy transfer from a long-lived donor to a nearby acceptor.

What is called IC50 is the concentration needed to halve the response being measured.

Where only a bound is given, the exact number is not on record here.

As for `CC(C)n1cnnc1-c1cccc(N2CCN(c3ccc(NC4CCOCC4)cc3)C2=O)n1` [Example 1081, 1-(6-(4-isopropyl-4H-1,2,4-triazol-3-yl)pyridin-2-yl)-3-(4-(tetrahydro-2H-pyran-4-ylamino)phenyl)imidazolidin-2-one], the IC50 in assay [1] was > 100 nM; in assay [2] it was < 50 nM.

In the case of `CC(C)n1cnnc1-c1cccc(N2CCN(c3ccc(S(C)(=O)=O)nc3)C2=O)n1` [Example 1018, 1-(6-(4-isopropyl-4H-1,2,4-triazol-3-yl)pyridin-2-yl)-3-(6-(methylsulfonyl)pyridin-3-yl)imidazolidin-2-one], the IC50 in assay [1] was > 1000 nM; in assay [2], < 100 nM.

For `CC(C)n1cnnc1-c1cccc(N2CCN(c3ccc(N4CCN(C)C(=O)C4)cc3)C2=O)n1` [Example 1135, 4-(4-(3-(6-(4-isopropyl-4H-1,2,4-triazol-3-yl)pyridin-2-yl)-2-oxoimidazolidin-1-yl)phenyl)-1-methylpiperazin-2-one], the concentration for half-maximal inhibition (IC50) in assay [1] is > 1000 nM; in assay [2], < 100 nM.

For `CC(C)n1cnnc1-c1cccc(N2CCN(c3ccc(NS(C)(=O)=O)cc3)C2=O)n1` [Example 1044, N-(4-(3-(6-(4-isopropyl-4H-1,2,4-triazol-3-yl)pyridin-2-yl)-2-oxoimidazolidin-1-yl)phenyl)methanesulfonamide], the IC50 in assay [1] was > 1000 nM; in assay [2], < 100 nM.

Regarding `CC(C)n1cnnc1-c1cccc(N2CCN(c3ccc(N4CC5(COC5)C4)cc3)C2=O)n1` [Example 1074, 1-(4-(2-oxa-6-azaspiro[3.3]heptan-6-yl)phenyl)-3-(6-(4-isopropyl-4H-1,2,4-triazol-3-yl)pyridin-2-yl)imidazolidin-2-one], the half-inhibitory concentration (IC50) in assay [1] is > 100 nM; in assay [2], < 100 nM.

For `CC(C)n1cnnc1-c1cccc(N2CCN(c3ccc(S(C)(=O)=O)c(F)c3)C2=O)n1` [Example 1038, 1-(3-fluoro-4-(methylsulfonyl)phenyl)-3-(6-(4-isopropyl-4H-1,2,4-triazol-3-yl)pyridin-2-yl)imidazolidin-2-one], the results for the IC50 in assay [1] and in assay [2] were < 1000 nM and < 100 nM, respectively.

For `CC(C)n1cnnc1-c1cccc(N2CCN(c3ccc(C#N)cc3)C2=O)n1` [Example 1035, 4-(3-(6-(4-isopropyl-4H-1,2,4-triazol-3-yl)pyridin-2-yl)-2-oxoimidazolidin-1-yl)benzonitrile], the IC50 was > 10000 nM in assay [1] and < 100 nM in assay [2].

Take `CC(C)n1cnnc1-c1cccc(N2CCN(c3ccc(-n4cnc(C5CC5)c4)cc3)C2=O)n1` [Example 1040, 1-(4-(4-cyclopropyl-1H-imidazol-1-yl)phenyl)-3-(6-(4-isopropyl-4H-1,2,4-triazol-3-yl)pyridin-2-yl)imidazolidin-2-one]: the half-maximal inhibitory concentration (IC50) in assay [1] is > 10000 nM; in assay [2] it was < 100 nM.

Regarding `CC(C)n1cnnc1-c1cccc(N2CCN(c3cnc(N4CCOCC4)nc3)C2=O)n1` [Example 1103, 1-(6-(4-isopropyl-4H-1,2,4-triazol-3-yl)pyridin-2-yl)-3-(2-morpholinopyrimidin-5-yl)imidazolidin-2-one], the 50% inhibitory concentration (IC50) in assay [1] was > 100 nM; in assay [2], < 100 nM.

Turning to `CC(C)n1cnnc1-c1cccc(N2CCN(c3ccc(C(C#N)N4CCOCC4)nc3)C2=O)n1` (stereo not drawn) [Example 1113, 2-(5-(3-(6-(4-isopropyl-4H-1,2,4-triazol-3-yl)pyridin-2-yl)-2-oxoimidazolidin-1-yl)pyridin-2-yl)-2-morpholinoacetonitrile], the IC50 in assay [1] was > 1000 nM; in assay [2], < 100 nM.

In the case of `CC(n1cnnc1-c1cccc(N2CCN(c3ccc(S(C)(=O)=O)cc3)C2=O)n1)C(F)(F)F` (stereo not drawn) [Example 1061, 1-(6-(4-(1,1,1-trifluoropropan-2-yl)-4H-1,2,4-triazol-3-yl)pyridin-2-yl)-3-(4-(methylsulfonyl)phenyl)imidazolidin-2-one], the half-inhibitory concentration (IC50) in assay [1] is > 1000 nM; in assay [2], < 100 nM.

Take `CC(C)n1cnnc1-c1cccc(N2CCN(c3ccc(N4CCN(C)CC4)cc3)C2=O)n1` [Example 1092, 1-(6-(4-isopropyl-4H-1,2,4-triazol-3-yl)pyridin-2-yl)-3-(4-(4-methylpiperazin-1-yl)phenyl)imidazolidin-2-one]: the concentration for half-maximal inhibition (IC50) in assay [1] is > 1000 nM; in assay [2], < 100 nM.

Take `CC(C)n1cnnc1-c1cccc(N2CCN(c3ccc(OCCS(C)(=O)=O)cc3)C2=O)n1` [Example 1126, 1-(4-(2-(methylsulfonyl)ethoxy)phenyl)-3-(6-(4-isopropyl-4H-1,2,4-triazol-3-yl)pyridin-2-yl)imidazolidin-2-one]: the results for the half-maximal inhibitory concentration (IC50) in assay [1] and in assay [2] were > 1000 nM and < 100 nM, respectively.

`CNC(=O)N1CCN(c2ccc(N3CCN(c4cccc(-c5nncn5C(C)C)n4)C3=O)cc2)CC1` [Example 1136, 4-(4-(3-(6-(4-isopropyl-4H-1,2,4-triazol-3-yl)pyridin-2-yl)-2-oxoimidazolidin-1-yl)phenyl)-N-methylpiperazine-1-carboxamide]: the IC50 is > 100 nM in assay [1] and < 100 nM in assay [2].

On to `CC(C)n1cnnc1-c1cccc(N2CCN(c3ccc(N4CCC(O)CC4)cc3)C2=O)n1` [Example 1067, 1-(4-(4-hydroxypiperidin-1-yl)phenyl)-3-(6-(4-isopropyl-4H-1,2,4-triazol-3-yl)pyridin-2-yl)imidazolidin-2-one], for which the IC50 was > 100 nM in assay [1] and < 100 nM in assay [2].

As for `CNC(=O)C1CC2CCC(C1)N2c1ccc(N2CCN(c3cccc(-c4nncn4C(C)C)n3)C2=O)cc1` (stereo not drawn) [Example 1140, 8-(4-(3-(6-(4-isopropyl-4H-1,2,4-triazol-3-yl)pyridin-2-yl)-2-oxoimidazolidin-1-yl)phenyl)-N-methyl-8-aza-bicyclo[3.2.1]octane-3-carboxamide], the IC50 was < 100 nM in assay [1] and < 50 nM in assay [2].

Consider `CC(C)n1cnnc1-c1cccc(N2CCN(c3ccc(C(=O)NC4CC4)nc3)C2=O)n1` [Example 1109, N-cyclopropyl-5-(3-(6-(4-isopropyl-4H-1,2,4-triazol-3-yl)pyridin-2-yl)-2-oxoimidazolidin-1-yl)pyridine-2-carboxamide], for which the IC50 in assay [1] was > 1000 nM; in assay [2], < 100 nM.

Consider `CC(CO)n1cnnc1-c1cccc(N2CCN(c3ccc(S(C)(=O)=O)cc3)C2=O)n1` (stereo not drawn) [Example 1057, 1-(6-(4-(1-hydroxypropan-2-yl)-4H-1,2,4-triazol-3-yl)pyridin-2-yl)-3-(4-(methylsulfonyl)phenyl)imidazolidin-2-one], for which the IC50 in assay [1] is > 1000 nM; in assay [2], < 100 nM.

Regarding `CC(C)n1cnnc1-c1cccc(N2CCN(c3ccc(N4[C@H](C)COC[C@@H]4C)cc3)C2=O)n1` [Example 1085, 1-(6-(4-isopropyl-4H-1,2,4-triazol-3-yl)pyridin-2-yl)-3-(4-((3R,5S)-3,5-dimethylmorpholino)phenyl)imidazolidin-2-one], the 50% inhibitory concentration (IC50) in assay [1] is > 100 nM; in assay [2], < 100 nM.

Turning to `CC(C)n1cnnc1-c1cccc(N2CCN(Cc3ccc(N4CCOCC4)cc3)C2=O)n1` [Example 1112, 1-(4-morpholinobenzyl)-3-(6-(4-isopropyl-4H-1,2,4-triazol-3-yl)pyridin-2-yl)imidazolidin-2-one], the half-maximal inhibitory concentration (IC50) in assay [1] is > 1000 nM; in assay [2], < 100 nM.

As to `COCCS(=O)(=O)c1ccc(N2CCN(c3cccc(-c4nncn4C(C)C)n3)C2=O)cc1` [Example 1050, 1-(4-(2-methoxyethylsulfonyl)phenyl)-3-(6-(4-isopropyl-4H-1,2,4-triazol-3-yl)pyridin-2-yl)imidazolidin-2-one], the half-maximal inhibitory concentration (IC50) was > 1000 nM in assay [1] and < 100 nM in assay [2].

For the origin of these results see patent US20220332700A1, “NOVEL APOPTOSIS SIGNAL-REGULATING KINASE 1 INHIBITORS” (MANKIND PHARMA LTD, priority 2019, published 2022).
